According to patent US11655235B2, “Pyrrolidine and piperidine compounds” (YUHAN CORPORATION, priority 2019, dated 2023):

Key:
Format in all cases: biochemical
[1] = molecular target: T1, recombinant human DPP7 (Homo sapiens, UniProt Q9UHL4); experiment: DPP7 inhibition, fluorogenic substrate Lys-Pro-AMC; conditions: recombinant human DPP7
T1 construct: purchased R&D Systems
How it was run: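 Inhibitors are titrated in an 8-point series into the enzyme's assay buffer (DMSO no more than 0.5%). Substrate cleavage at 25 °C is followed by fluorescence, excitation 380 nm and emission 460 nm. IC50 values come from a four-variable logistic model.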

[2] = molecular target: DPP4 (Homo sapiens, UniProt P27487); experiment: DPP4 inhibition, fluorogenic substrate H-Gly-Pro-AMC; set-up: purchased R&D Systems; conditions: recombinant human DPP4
[3] = molecular target: T2, Recombinant human FAP (Homo sapiens, UniProt Q12884); experiment: FAP FRET assay, FGF21-sequence FRET peptide substrate; conditions: FRET peptide with human FGF21 sequence, 6 μM, 37° C.
T2 construct: purchased R&D systems
T2 sequence (Q12884 1-760): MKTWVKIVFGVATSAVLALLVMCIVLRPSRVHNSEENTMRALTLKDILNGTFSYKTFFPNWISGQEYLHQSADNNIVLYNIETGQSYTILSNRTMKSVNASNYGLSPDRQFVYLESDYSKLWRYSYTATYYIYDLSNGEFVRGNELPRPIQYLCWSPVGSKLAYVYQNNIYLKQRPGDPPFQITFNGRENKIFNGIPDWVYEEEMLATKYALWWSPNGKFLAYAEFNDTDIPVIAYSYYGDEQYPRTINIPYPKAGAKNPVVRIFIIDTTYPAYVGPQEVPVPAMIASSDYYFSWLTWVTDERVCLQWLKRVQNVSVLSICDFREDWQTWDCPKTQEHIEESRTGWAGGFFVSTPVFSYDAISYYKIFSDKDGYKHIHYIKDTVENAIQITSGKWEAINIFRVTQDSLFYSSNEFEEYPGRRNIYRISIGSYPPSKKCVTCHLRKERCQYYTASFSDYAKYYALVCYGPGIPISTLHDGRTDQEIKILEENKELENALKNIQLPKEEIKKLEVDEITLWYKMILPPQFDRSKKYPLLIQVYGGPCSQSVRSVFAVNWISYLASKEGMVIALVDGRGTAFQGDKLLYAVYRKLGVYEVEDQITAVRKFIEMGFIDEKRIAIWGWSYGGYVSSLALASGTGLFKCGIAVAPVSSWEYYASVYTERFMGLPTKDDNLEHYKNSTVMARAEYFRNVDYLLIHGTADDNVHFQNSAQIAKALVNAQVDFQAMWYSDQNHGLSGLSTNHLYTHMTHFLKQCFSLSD
How it was run: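 FRET peptide bearing human FGF21 sequence (6 μM final) cleaved by 10 ng recombinant human FAP at 37° C in HEPES pH 7.2 buffer with NaCl, BSA and EDTA, DMSO up to 0.1%. Signal-rate decrease versus uninhibited control fitted to a four-variable logistic model for IC50.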

[4] = molecular target: T3, recombinant human DPP9 (Homo sapiens, UniProt Q86TI2); experiment: DPP9 inhibition, fluorogenic substrate H-Gly-Pro-AMC; conditions: recombinant human DPP9
T3 construct: purchased R&D Systems
Procedure: (§1) The compounds according to the present technology were evaluated in terms of the inhibitory effect on the activity of dipeptidyl peptidases including FAP by using a substrate producing fluorescent substances upon enzymatic decomposition. The test was conducted at 25° C. to get a final reaction volume of 100 μL in a 96 black well plate. […] Briefly, the test compounds were dissolved in dimethyl sulfoxide (DMSO) at a concentration of 20 mM and then subjected to serial dilution, thereby creating an 8 point curve. As for the control group, a 6 point curve created by serial dilution of Talabostat in the same buffer solution was used. Fluorescence intensity was measured using a microplate reader (Flexstation3, Molecular Devices) under the wavelength condition exciting at 380 nm and reading the emission at 460 nm. The inhibitory effect of the test compounds was measured as a decrease (%) in the signal rate as compared to the control group without any inhibitor. Data was fixed to a logistic model with four variables and IC50 value was calculated using GraphPad Prism program. As for recombinant human DPP4 (R&D Systems), 25 mM tris (pH 8.0) buffer as a buffer solution and H-Gly-Pro-AMC (Bachem) as a substrate were used. As for recombinant human DPP7 (R&D Systems), 25 mM MES (pH 6.0) buffer as a buffer solution and Lys-Pro-AMC (Bachem) as a substrate were used. As for recombinant human DPP8 (PBS Bioscience), as a buffer solution, a 10 mM tris (pH 7.4) buffer comprising 10 mM of magnesium chloride and 0.05% of Tween 20, and Z-Ala-Pro-AMC (BPS Bioscience) as a substrate were used. As for recombinant human DPP9 (R&D Systems), a 25 mM tris (pH 8.0) buffer as a buffer solution and H-Gly-Pro-AMC (Bachem) as a substrate were used. As for recombinant human PREP (R&D System), as a buffer solution, a 25 mM tris (pH 7.5) buffer comprising 250 mM sodium chloride and 2.5 mM DTT (Dithiolthreitol), and Z-Gly-Pro-AMC (Bachem) as a substrate were used. The evaluation was made by using 10 ng of DPP4, PDD7, and PREP, 20 ng of DPP8, and 50 ng of DPP9 based on the final reaction. In the evaluation of DPP4, the test compounds were subjected to serial dilution in a buffer under the condition containing up to 0.1% of DMSO. In the evaluation of DPP7, DPP8, DPP9, and PREP, the test compounds were subjected to serial dilution in each buffer under the condition containing up to 0.5% of DMSO.

[5] = molecular target: T4, recombinant human PREP (Homo sapiens, UniProt P48147); experiment: PREP inhibition, fluorogenic substrate Z-Gly-Pro-AMC; conditions: Inhibitory Activity (IC50, nM) PREP, recombinant human PREP
T4 construct: purchased R&D System
T4 sequence (P48147 1-710): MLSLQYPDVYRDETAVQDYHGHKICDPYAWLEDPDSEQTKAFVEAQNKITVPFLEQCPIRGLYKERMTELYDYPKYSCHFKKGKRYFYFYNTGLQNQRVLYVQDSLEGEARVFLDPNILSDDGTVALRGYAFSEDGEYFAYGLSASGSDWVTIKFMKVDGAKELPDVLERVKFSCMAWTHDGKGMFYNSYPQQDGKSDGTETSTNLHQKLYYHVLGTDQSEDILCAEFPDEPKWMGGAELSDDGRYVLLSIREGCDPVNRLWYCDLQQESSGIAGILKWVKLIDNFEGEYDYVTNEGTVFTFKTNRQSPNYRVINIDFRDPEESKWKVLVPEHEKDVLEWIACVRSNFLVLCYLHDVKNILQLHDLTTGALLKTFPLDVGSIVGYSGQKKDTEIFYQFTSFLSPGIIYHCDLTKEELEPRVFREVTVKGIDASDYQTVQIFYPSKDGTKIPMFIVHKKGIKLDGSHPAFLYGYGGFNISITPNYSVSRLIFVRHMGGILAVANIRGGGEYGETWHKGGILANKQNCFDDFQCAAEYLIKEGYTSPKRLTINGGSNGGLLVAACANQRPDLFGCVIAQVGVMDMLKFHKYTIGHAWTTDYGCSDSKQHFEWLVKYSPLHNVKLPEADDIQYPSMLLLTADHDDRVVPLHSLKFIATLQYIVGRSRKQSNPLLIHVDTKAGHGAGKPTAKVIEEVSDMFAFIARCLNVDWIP
Procedure: as §1

DPP4, sequence (P27487 whole entry): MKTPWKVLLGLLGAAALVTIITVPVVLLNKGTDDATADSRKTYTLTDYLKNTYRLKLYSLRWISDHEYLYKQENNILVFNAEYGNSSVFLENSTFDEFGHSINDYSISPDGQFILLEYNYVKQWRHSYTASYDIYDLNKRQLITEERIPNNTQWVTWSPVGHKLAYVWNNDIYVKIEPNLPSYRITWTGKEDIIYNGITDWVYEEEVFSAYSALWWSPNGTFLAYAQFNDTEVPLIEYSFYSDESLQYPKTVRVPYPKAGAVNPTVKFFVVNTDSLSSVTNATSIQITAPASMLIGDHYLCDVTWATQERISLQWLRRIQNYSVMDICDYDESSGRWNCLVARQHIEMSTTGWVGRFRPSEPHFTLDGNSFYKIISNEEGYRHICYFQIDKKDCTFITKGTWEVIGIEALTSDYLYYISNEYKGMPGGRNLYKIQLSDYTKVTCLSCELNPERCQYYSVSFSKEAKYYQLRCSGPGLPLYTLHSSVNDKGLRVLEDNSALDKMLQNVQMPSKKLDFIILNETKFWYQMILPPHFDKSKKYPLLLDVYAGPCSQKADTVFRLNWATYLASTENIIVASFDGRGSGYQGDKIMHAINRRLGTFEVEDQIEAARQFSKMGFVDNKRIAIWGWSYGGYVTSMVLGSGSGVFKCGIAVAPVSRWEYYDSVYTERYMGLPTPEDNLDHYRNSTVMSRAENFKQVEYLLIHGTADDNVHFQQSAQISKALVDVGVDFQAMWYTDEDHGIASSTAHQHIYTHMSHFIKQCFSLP
T3 sequence (Q86TI2 whole entry): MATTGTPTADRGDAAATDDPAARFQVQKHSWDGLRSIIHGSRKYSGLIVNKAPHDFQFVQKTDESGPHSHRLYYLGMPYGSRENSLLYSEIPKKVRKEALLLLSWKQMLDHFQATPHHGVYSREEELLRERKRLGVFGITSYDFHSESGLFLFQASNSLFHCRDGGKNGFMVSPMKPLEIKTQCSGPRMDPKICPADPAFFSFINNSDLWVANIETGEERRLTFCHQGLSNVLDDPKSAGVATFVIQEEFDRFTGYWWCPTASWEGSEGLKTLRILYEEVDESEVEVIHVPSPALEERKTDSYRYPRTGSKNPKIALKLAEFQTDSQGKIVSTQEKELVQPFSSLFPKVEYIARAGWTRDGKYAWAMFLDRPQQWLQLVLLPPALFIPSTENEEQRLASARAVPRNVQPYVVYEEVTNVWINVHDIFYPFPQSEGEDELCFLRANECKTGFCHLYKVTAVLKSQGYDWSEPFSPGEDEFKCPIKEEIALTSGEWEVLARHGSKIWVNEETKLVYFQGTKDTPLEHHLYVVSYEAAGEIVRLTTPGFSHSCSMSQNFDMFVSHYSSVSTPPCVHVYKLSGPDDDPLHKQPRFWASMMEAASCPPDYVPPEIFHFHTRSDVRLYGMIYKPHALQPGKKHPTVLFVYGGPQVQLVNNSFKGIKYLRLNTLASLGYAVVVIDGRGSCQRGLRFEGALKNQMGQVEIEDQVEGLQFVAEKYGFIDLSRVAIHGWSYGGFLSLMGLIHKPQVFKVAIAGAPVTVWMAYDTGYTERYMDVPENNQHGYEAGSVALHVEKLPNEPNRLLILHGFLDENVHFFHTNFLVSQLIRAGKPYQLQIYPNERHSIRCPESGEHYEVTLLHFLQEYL

Compound	IC50 [1]	IC50 [2]	IC50 [3]	IC50 [4]	IC50 [5]
COc1ccc(N[C@@H]2CCN(CC(=O)N3C[C@@H](F)C[C@H]3C#N)C2)c2cccnc12 [Example 178, (2S,4S)-4-fluoro-1-[2-[(3R)-3-[(8-methoxy-5-quinolyl)amino]pyrrolidin-1-yl]acetyl]pyrrolidine-2-carbonitrile]	5.96 µM	1.36 µM	0.0101 µM	2.57 µM	2350 nM
Cc1cnc2cccc(N[C@@H]3CCN(CC(=O)N4C[C@@H](F)C[C@H]4C#N)C3)c2c1 [Example 179, (2S,4S)-4-fluoro-1-[2-[(3R)-3-[(3-methyl-5-quinolyl)amino]pyrrolidin-1-yl]acetyl]pyrrolidine-2-carbonitrile]	0.401 µM	1.94 µM	0.0036 µM	2.56 µM	2930 nM
Cc1ccc2ncccc2c1N[C@@H]1CCN(CC(=O)N2C[C@@H](F)C[C@H]2C#N)C1 [Example 180, (2S,4S)-4-fluoro-1-[2-[(3R)-3-[(6-methyl-5-quinolyl)amino]pyrrolidin-1-yl]acetyl]pyrrolidine-2-carbonitrile]	6.79 µM	1.02 µM	0.0062 µM	3.18 µM	1560 nM
Cc1ccc(N[C@@H]2CCN(CC(=O)N3C[C@@H](F)C[C@H]3C#N)C2)c2cccnc12 [Example 181, (2S,4S)-4-fluoro-1-[2-[(3R)-3-[(8-methyl-5-quinolyl)amino]pyrrolidin-1-yl]acetyl]pyrrolidine-2-carbonitrile]	0.215 µM	1.06 µM	0.0026 µM	4.62 µM	4670 nM
N#C[C@@H]1C[C@H](F)CN1C(=O)CN1CC[C@@H](Nc2cc(C(F)(F)F)cc3ncccc23)C1 [Example 182, (2S,4S)-4-fluoro-1-[2-[(3R)-3-[[7-(trifluoromethyl)-5-quinolyl]amino]pyrrolidin-1-yl]acetyl]pyrrolidine-2-carbonitrile]	0.819 µM	4.07 µM	0.0033 µM	6.69 µM	5360 nM
N#C[C@@H]1C[C@H](F)CN1C(=O)CN1CC[C@@H](Nc2ccc(C(F)(F)F)c3ncccc23)C1 [Example 183, (2S,4S)-4-fluoro-1-[2-[(3R)-3-[[8-(trifluoromethyl)-5-quinolyl]amino]pyrrolidin-1-yl]acetyl]pyrrolidine-2-carbonitrile]	1.37 µM	1.84 µM	0.0022 µM	6.77 µM	3370 nM
N#C[C@@H]1C[C@H](F)CN1C(=O)CN1CC[C@@H](Nc2cccc3ncc(Cl)cc23)C1 [Example 185, (2S,4S)-4-fluoro-1-[2-[(3R)-3-[(3-chloro-5-quinolyl)amino]pyrrolidin-1-yl]acetyl]pyrrolidine-2-carbonitrile]	1.3 µM	0.995 µM	0.0021 µM	2.75 µM	3550 nM

The remaining lines, values ahead:

IC50 [1]	IC50 [2]	IC50 [3]	IC50 [4]	IC50 [5]	Compound
2.02 µM	2.22 µM	0.0027 µM	4.41 µM	3590 nM	N#C[C@@H]1C[C@H](F)CN1C(=O)CN1CC[C@@H](Nc2ccc(OC(F)(F)F)c3ncccc23)C1 [Example 186, (2S,4S)-4-fluoro-1-[2-[(3R)-3-[[8-(trifluoromethoxy)-5-quinolyl]amino]pyrrolidin-1-yl]acetyl]pyrrolidine-2-carbonitrile]
2.58 µM	3.5 µM	0.01 µM	1.51 µM	1150 nM	N#C[C@@H]1C[C@H](F)CN1C(=O)CN1CC[C@@H](Nc2ccnc3c(Cl)cccc23)C1 [Example 189, (2S,4S)-4-fluoro-1-[2-[(3R)-3-[(8-chloro-4-quinolyl)amino]pyrrolidin-1-yl]acetyl]pyrrolidine-2-carbonitrile]
0.0637 µM	12.5 µM	0.0167 µM	1.39 µM	1250 nM	Cc1cccc2c(N[C@@H]3CCN(CC(=O)N4C[C@@H](F)C[C@H]4C#N)C3)ccnc12 [Example 190, (2S,4S)-4-fluoro-1-[2-[(3R)-3-[(8-methyl-4-quinolyl)amino]pyrrolidin-1-yl]acetyl]pyrrolidine-2-carbonitrile]
4.12 µM	13.4 µM	0.0052 µM	23.8 µM	14700 nM	N#C[C@@H]1CCCN1C(=O)CN1CC[C@@H](Nc2cc(F)cc3ncccc23)C1 [Example 197, (2S)-1-[2-[(3R)-3-[(7-fluoro-5-quinolyl)amino]pyrrolidin-1-yl]acetyl]pyrrolidine-2-carbonitrile]
0.901 µM	9.46 µM	0.0086 µM	14.9 µM	2920 nM	COc1cc(N[C@@H]2CCN(CC(=O)N3CCC[C@H]3C#N)C2)c2cccnc2c1 [Example 198, (2S)-1-[2-[(3R)-3-[(7-methoxy-5-quinolyl)amino]pyrrolidin-1-yl]acetyl]pyrrolidine-2-carbonitrile]
1.7 µM	5.51 µM	0.0063 µM	27.3 µM	6090 nM	Cc1ccc(N[C@@H]2CCN(CC(=O)N3CCC[C@H]3C#N)C2)c2cccnc12 [Example 200, (2S)-1-[2-[(3R)-3-[(8-methyl-5-quinolyl)amino]pyrrolidin-1-yl]acetyl]pyrrolidine-2-carbonitrile]
